Test results published in ChEMBL document CHEMBL3608267, “Identification of dialkyl diacetylene diols with potent cancer chemopreventive activity” (Bioorg Med Chem Lett, 2015).

How the values were obtained:
[1] = Toxicity against mouse Hepa-1c1c7 cells assessed as inhibition of cell proliferation; type: cell-based
[2] = Chemopreventive index, ratio of IC50 for mouse Hepa-1c1c7 cells to drug concentration required to double induction of NQO1 in mouse Hepa-1c1c7 cells
[3] = target: NAD(P)H dehydrogenase [quinone] 1 (Mus musculus) (UniProt Q64669); assay: Induction of NQO1 in mouse Hepa-1c1c7 cells assessed as drug concentration required to double induction by quinone reductase assay; type: cell-based
NAD(P)H dehydrogenase [quinone] 1 (Mus musculus), sequence (Q64669 whole entry): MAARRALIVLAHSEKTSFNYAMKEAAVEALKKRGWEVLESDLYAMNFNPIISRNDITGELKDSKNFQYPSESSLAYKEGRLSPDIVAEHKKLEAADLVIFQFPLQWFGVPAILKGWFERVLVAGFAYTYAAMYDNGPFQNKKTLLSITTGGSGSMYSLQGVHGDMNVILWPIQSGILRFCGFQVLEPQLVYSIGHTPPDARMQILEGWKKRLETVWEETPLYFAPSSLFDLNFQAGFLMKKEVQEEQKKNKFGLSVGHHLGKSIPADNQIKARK

| SMILES | IC50 [1] [µM] | Ratio [2] | CD [3] [µM] |
| --- | --- | --- | --- |
| CCCCCC(O)C#CC#CC(O)CC(C)C (stereo not drawn) | 41 | 32 | 1.3 |
| CCCCC[C@H](O)C#CC#C[C@@H](O)CCCCC | 47 | 18 | 2.6 |
| CCCCCCCCCC(O)C#CC#CC(O)CCCCC (stereo not drawn) | 12 | 4.6 | 2.6 |
| CCCCCC(O)C#CC#CC(O)CCCCC (mixture of isomers) | > 50 | >16 | 3.1 |
| CCCCCCCCCC(O)C#CC#CC(O)CCCCCCCCC (stereo not drawn) | 26 | 1 | 26 |
| CCCCC[C@@H](O)C#CC#C[C@H](O)CCCCC | 12 | 20 | 0.6 |
| CCCC(O)C#CC#CCO (stereo not drawn) | > 50 | >8.3 | 6 |
| CCCCCC(O)C#CC#CCO (racemic) | > 50 | >11 | 4.7 |
| CCCCCC(O)C#CC#CC(O)C1CCCCC1 (mixture of isomers) | > 50 | >16 | 3.2 |
| C=CCCCCC/C=C\[C@@H](O)C#CC#C[C@@H](O)[C@H](C)O | > 50 | >6.1 | 8.2 |
| OC(C#CC#CC(O)C1CCCCC1)C1CCCCC1 (stereo not drawn) | > 50 | >6 | 8.4 |
| CCCCCCCCCC(O)C#CC#CC(O)CCC (stereo not drawn) | 30 | 7.2 | 4.2 |
| CC(C)CC(O)C#CC#CC(O)C1CCCCC1 (stereo not drawn) | > 50 | >8.9 | 5.6 |
| CCCCC[C@@H](O)C#CC#CCO | > 100 | >43 | 2.3 |
| CCCCCC(O)C#CC#CC(O)CCC (stereo not drawn) | 19 | 24 | 0.8 |
| CCCCC[C@H](O)C#CC#C[C@H](O)CCCCC | 68 | 14 | 4.7 |
| C[S+]([O-])CCCCN=C=S (stereo not drawn) [SULFORAPHANE] | 11 | 27 | 0.4 |
| CCCCCCCCCC(O)C#CC#CC(O)C1CCCCC1 (stereo not drawn) | 44 | 4 | 11 |
| CCCCCCCCCC(O)C#CC#CC(O)CC(C)C (stereo not drawn) | > 50 | >5 | 10 |
| CCCC(O)C#CC#CC(O)C1CCCCC1 (stereo not drawn) | > 50 | >8.1 | 6.2 |
| CCCCC[C@H](O)C#CC#CCO | > 100 | >31 | 3.2 |
